Values quoted from earlier work as cited in patent US20170343557A1, “USE OF 5-METHOXYTRYPTOPHAN AS DIAGNOSTIC AGENT OF INFLAMMATORY DISEASES” (NATIONAL HEALTH RESEARCH INSTITUTES, priority 2014, published 2017).

What was measured:
[1] = tested on: cancer cell migration and invasion
[2] = tested on: COX-2 expression in fibroblasts and cancer cells
[3] = tested on: cancer metastasis in a xenograft model

COc1ccc2[nH]cc(C[C@H](N)C(=O)O)c2c1 [5-MTP, 5-methoxytryptophan]
Cancer cell migration and invasion [1]: reduces
Proinflammatory mediator-induced COX-2 expression [2]: inhibits
Cancer metastasis [3]: reduces
